In the supplement of paper PMC11451515:

How the values were obtained:
Conditions in all cases: 48 h
SEM cells [1] = assay: cell viability relative to DMSO control; higher = less cytotoxic
Summary of the method: (§1)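 In 1536-well plates, 5 μl of leukemia cells were seeded per well: 500 cells/well for NOMO1 or SEM and 1000 cells/well for P12-Ichikawa. Each line had first been adapted for at least four passages in each medium. Library compounds in DMSO were pin-dosed at 11 threefold concentrations between 47 μM and 0.79 nM, and CellTiter-Glo One luminescence was read after 48 h at 37°C. Viability is a per-plate percentage relative to DMSO wells, with cell-free wells as background.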

P12-Ichikawa [2] = assay: as above
Summary of the method: as §1

NOMO1 [3] = assay: as above
Summary of the method: as §1

P12-Ichikawa [4] = assay: AUC of viability dose-response curve (% viability x log10 dose units); higher = less sensitive
Summary of the method: (§2)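 Library compounds in DMSO were applied for 48 h at 37°C at 11 threefold doses (47 μM to 0.79 nM) to medium-adapted leukemia cells in 1536-well plates holding 500 or 1000 cells/well. Luminescence from CellTiter-Glo One was normalised plate by plate against DMSO and cell-free wells. Area under the curve came from trapezoidal integration of a log-logistic fit, after scaling curves that rose above full viability and discarding those that failed quality control. The fit had four parameters and used log10 doses.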

NOMO1 [5] = assay: as above
Summary of the method: as §2

SEM cells [6] = assay: as above
Summary of the method: as §2

CC(C)[C@]12O[C@H]1[C@@H]3O[C@@]34[C@@]5(C)CC\C6=C(COC6=O)/[C@@H]5C[C@@H]7O[C@]47[C@@H]2O
cell viability [%]
Conditions	NOMO1 [3]	P12-Ichikawa [2]	SEM cells [1]
HPLM + 10% dialyzed FBS, 0.000781 µM	118	97.5	88.8
HPLM + 10% dialyzed FBS, 0.00234 µM	7.83	9.15	8.24
HPLM + 10% dialyzed FBS, 0.00702 µM	7.37	6.65	7.05
HPLM + 10% dialyzed FBS, 0.0211 µM	6.84	7.98	7.2
HPLM + 10% dialyzed FBS, 0.0632 µM	8.16	9.04	8.43
HPLM + 10% dialyzed FBS, 0.19 µM	7.58	8.65	7.98
HPLM + 10% dialyzed FBS, 0.569 µM	7.57	9.22	7.67
HPLM + 10% dialyzed FBS, 1.71 µM	6.99	8.95	7.16
HPLM + 10% dialyzed FBS, 5.12 µM	6.9	8.4	5.34
HPLM + 10% dialyzed FBS, 15.4 µM	3.84	6.67	3.24
HPLM + 10% dialyzed FBS, 46.1 µM	2.95	4.18	2.08
RPMI 5 mM glucose + 10% FBS, 0.000781 µM	107	102	70.6
RPMI 5 mM glucose + 10% FBS, 0.00234 µM	6.29	16.6	5.86
RPMI 5 mM glucose + 10% FBS, 0.00702 µM	7.04	8.24	5.11
RPMI 5 mM glucose + 10% FBS, 0.0211 µM	6.27	5.66	4.85
RPMI 5 mM glucose + 10% FBS, 0.0632 µM	7.93	7.99	5.84
RPMI 5 mM glucose + 10% FBS, 0.19 µM	7.51	8.04	5.43
RPMI 5 mM glucose + 10% FBS, 0.569 µM	6.66	7	4.78
RPMI 5 mM glucose + 10% FBS, 1.71 µM	6.58	6.95	4.12
RPMI 5 mM glucose + 10% FBS, 5.12 µM	5	5.74	3.56
RPMI 5 mM glucose + 10% FBS, 15.4 µM	4.13	4.33	2.23
RPMI 5 mM glucose + 10% FBS, 46.1 µM	1.89	2.61	1.15
RPMI 5 mM glucose + 10% dialyzed FBS, 0.000781 µM	106	101	107
RPMI 5 mM glucose + 10% dialyzed FBS, 0.00234 µM	5.9	10.6	6.37
RPMI 5 mM glucose + 10% dialyzed FBS, 0.00702 µM	5.75	8.79	6.75
RPMI 5 mM glucose + 10% dialyzed FBS, 0.0211 µM	5.32	7.77	6.32
RPMI 5 mM glucose + 10% dialyzed FBS, 0.0632 µM	6.01	9.01	7.36
RPMI 5 mM glucose + 10% dialyzed FBS, 0.19 µM	6.39	8.98	7.3
RPMI 5 mM glucose + 10% dialyzed FBS, 0.569 µM	5.39	9.99	6.55
RPMI 5 mM glucose + 10% dialyzed FBS, 1.71 µM	5.08	9.74	6.33
RPMI 5 mM glucose + 10% dialyzed FBS, 5.12 µM	4.8	9.21	4.78
RPMI 5 mM glucose + 10% dialyzed FBS, 15.4 µM	3.96	6.99	3.05
RPMI 5 mM glucose + 10% dialyzed FBS, 46.1 µM	2.22	5.18	2.21

AUC of viability dose-response curve
Conditions	HPLM + 10% dialyzed FBS	RPMI 5 mM glucose + 10% FBS	RPMI 5 mM glucose + 10% dialyzed FBS
NOMO1 [5]	49.2	49	45.7
P12-Ichikawa [4]	59	56.8	62.8

Nc1ncnc2c1ncn2[C@@H]1O[C@H](CO)[C@@H](O)[C@H]1O
AUC of viability dose-response curve
Conditions	HPLM + 10% dialyzed FBS	RPMI 5 mM glucose + 10% FBS	RPMI 5 mM glucose + 10% dialyzed FBS
NOMO1 [5]	388	402	397
SEM cells [6]	462	454	463

Cc1oncc1C(=O)Nc1ccc(C(F)(F)F)cc1
AUC of viability dose-response curve
Conditions	NOMO1 [5]	P12-Ichikawa [4]	SEM cells [6]
HPLM + 10% dialyzed FBS	458	461	471
RPMI 5 mM glucose + 10% FBS	461	454	468
RPMI 5 mM glucose + 10% dialyzed FBS	422	459	465

COc1cccc2c1C(=O)c1c(O)c3c(c(O)c1C2=O)C[C@@](O)(C(=O)CO)C[C@@H]3O[C@H]1C[C@H](N)[C@@H](O)[C@H](C)O1
AUC of viability dose-response curve
Conditions	NOMO1 [5]	P12-Ichikawa [4]	SEM cells [6]
HPLM + 10% dialyzed FBS	369	364	359
RPMI 5 mM glucose + 10% FBS	362	359	309
RPMI 5 mM glucose + 10% dialyzed FBS	365	363	327
